Experiments:
[1] = test system: HCT-116 human colorectal carcinoma cells; assay: Alamar Blue (AB) cell proliferation assay, HCT-116; assay type: cell-based; conditions: 96 h, Alamar Blue cell proliferation inhibition, HCT-116, four days
Description: A representative cell-proliferation assay protocol using Alamar Blue dye (stored at 4° C., use 20 ul per well) is described hereafter.
96-Well Plate Setup and Compound Treatment
a. Split and trypsinize cells.
b. Count cells using hemocytometer.
c. Plate 4,000-5,000 cells per well in 100 μl of medium and seed into a 96-well plate according to the following plate layout. Add cell culture medium only to wells B10 to B12. Wells B1 to B9 have cells but no compound added.
d. Add 100 μl of 2× drug dilution to each well in a concentration shown in the plate layout above. At the same time, add 100 μl of media into the control wells (wells B10 to B12). Total volume is 200 μl/well.
e. Incubate four (4) days at 37° C., 5% CO2 in a humidified incubator.
f. Add 20 μl Alamar Blue reagent to each well.
g. Incubate for four (4) hours at 37° C., 5% CO2 in a humidified incubator.
h. Record fluorescence at an excitation wavelength of 544 nm and emission wavelength of 590 nm using a microplate reader.
In the assays, cells are cultured with a test compound for approximately four days, the dye then is added to the cells and fluorescence of […] dye is detected after approximately four hours. Different types of cells can be utilized in the assays (e.g., HCT-116 human colorectal carcinoma cells, PC-3 human prostatic cancer cells and MiaPaca human pancreatic carcinoma cells). Anti-proliferative effects of representative compounds are provided hereafter.
Representative cassette dosing and bioavailability data are given in Table 8, along with cell proliferation inhibition (from Alamar Blue (AB) assay (e.g., Example 45 herein) and rRNA inhibition (from quantitative PCR (QPCR) assay (e.g., Example 46 herein).

[2] = Cassette dosing oral pharmacokinetics in ICR mice; assay type: in vivo; conditions: ICR (IcrTac:ICR), mouse; cassette oral dose 25 mg/kg, female ICR mice, plasma, 0-8 h, none in table
Description: A cassette dosing procedure was utilized to determine pharmaceutical properties of compounds disclosed herein. In this procedure, compounds are selected for each cassette (i.e., cocktail) on the basis that mass spectrometric signals for each compound will not interfere with one another upon mass spectrometric analysis (e.g., will not overlap). The concentration of each compound in the dosing cassette often is about 20 mg/mL to achieve an oral dose level of 25 mg/kg in ICR mice. Aspects of the cassette dosing procedure are described hereafter.
Prepare 0.5 mL of 20 mg/mL dosing solution (in PBS or formulation vehicle) of 12 test compounds. Dilute a dosing solution 20 fold by transferring 10 μL of the stock solution into 190 μL acetonitrile containing 0.1% formic acid to achieve a final concentration of 1 mg/mL. Dilute further a 1 mg/mL solution 1,000 fold by transferring 1 μL of the stock solution into 999 μL acetonitrile containing 0.1% formic acid to achieve a final concentration of 1 μg/mL. Use the 1 μg/mL solution for mass spectrometric method development based on direct infusion. Determine parent/daughter mass spectra of each compound using multiple reaction monitoring (MRM). Compare parent/daughter mass spectra of each compound to assure no cross-reaction interference during LC-MS/MS measurements. Based on MRM mass spectra determine the composition of all cassettes.
Mix 250 μL of four prepared dosing solutions and an oral PK internal standard (20 mg/mL each) according to cassette design to achieve a final concentration of 4 mg/mL. Vortex cassettes rigorously and ultra-sonicate to obtain a clear solution or homogeneous suspension. Use the cassette solutions to dose animals by oral route of administration at 25 mg/kg.
All in vivo experiments follow protocols approved by the Animal Use and Care Committee. Female ICR mice (IcrTac:ICR), 8-10 weeks of age are obtained from Taconic (Hudson, N.Y.). Mice are housed on a 12 h/12 h light/dark cycle with ad libitum access to water and food. After a minimum two week acclimation period, the mice are randomized into groups with a minimum group size of four. The animals used for pharmacokinetic studies have a body-weight range of 25-35 g. A 25 mg/kg (4 mg/ml) dose of a cassette described in Example 1 is orally administered to mice that have been fasted overnight.
After compound administration, serial blood samples are collected via retro-orbital puncture with a capillary tube at various time points (15, 30 minutes and 1, 2, 4, 6 and 8 hours). The samples are transferred to a heparinized 0.5 mL microcentrifuge tube and placed on ice. Plasma is separated by centrifugation and samples are stored at −80° C. until assay.
Dilute a cassette dosing solution (4 mg/mL) four fold by transferring 25 μL of the stock solution into 75 μL of 50% acetonitrile containing 0.1% formic acid to achieve the concentration of 1 mg/mL. Dilute this stock solution further by serial dilutions to make 0.01, 0.1, 1 and 5 μg/mL working standard solutions.
Prepare 500 mL of 0.5 μg/mL solution of bioanalytical internal standard using 100% acetonitrile with 0.1% formic acid. Store the quenching solution in a tightly sealed bottle at 4° C.
Transfer 15 μL of blank mouse plasma to a 96 well plate and precipitate plasma proteins by pipetting of 120 μL of quenching solution to all plasma aliquots. Cover the plate with a matching plate mat and mix well for 30-60 seconds using a vertical multi-tube shaker.
Add 15 μL of the working standard solution of corresponding cassette to quenched plasma and vortex the plate for an additional 30-60 seconds. Then, centrifuge the plate at 4,000 rpm for 10 minutes at 4° C. Without disturbing the plasma protein pellet, transfer 120 μL of the supernatant to a new 96 well plate and dry the sample under nitrogen using a TurboVap® plate evaporator (Caliper Life Sciences; Hopkinton, Mass.). Reconstitute dried residues with 120 μL 20% acetonitrile containing 0.1% formic acid. […]

| SMILES | IC50 [1] [nM] | AUC(0-t) [2] [ng·h/mL] |
| --- | --- | --- |
| Cn1c2ccccc2n2c3nc(N4CCOCC4)c(F)cc3c(=O)c(C(=O)NCCN3CCCC3)c12 | 307 | 2000 |
| CN1CCCC1CCNC(=O)c1c(=O)c2cc(F)c(N3CCOCC3)nc2n2c3ccccc3n(C)c12 (centres unmarked) | 210 | 1190 |
| O=C(NCCN1CCCC1)c1c(=O)c2ccc(N3CCOCC3)nc2n2c1sc1ccccc12 | 59 | 2150 |
| CN1CCCC1CCNC(=O)c1c(=O)c2ccc(N3CCOCC3)nc2n2c1sc1ccccc12 (centres unmarked) | 55 | 2590 |
| Cn1c2ccccc2n2c3nc(N4CCOCC4)ccc3c(=O)c(C(=O)NCCN3CCCC3)c12 | 75 | 1260 |
| CN1CCCC1CCNC(=O)c1cn2c3c(c(N4CCOCC4)c(F)cc3c1=O)Oc1ccccc1-2 (centres unmarked) | 389 | 1430 |
| CN1CCCC1CCNC(=O)c1c(=O)c2cc(F)c(N3CCOCC3)nc2n2c1sc1ccccc12 (centres unmarked) | 337 | 3810 |
| O=C(NCCN1CCCC1)c1c(=O)c2cc(F)c(N3CCOCC3)nc2n2c1sc1ccccc12 | 81 | 2260 |
| CN1CCN(C(=O)c2c(=O)c3cc(F)c(N4CCOCC4)nc3n3c2sc2ccccc23)CC1 | 386 | 6160 |
| O=C(NCCN1CCC(O)C1)c1c(=O)c2cc(F)c(N3CCOCC3)nc2n2c1sc1ccccc12 (centres unmarked) | 55 | 1090 |
| CN1CCC(N(C)C(=O)c2c(=O)c3cc(F)c(N4CCOCC4)nc3n3c2sc2ccccc23)C1 (centres unmarked) | 174 | 2130 |
| O=C(NCCNCC1CCCO1)c1c(=O)c2ccc(N3CCOCC3)nc2n2c1sc1ccccc12 (centres unmarked) | 116 | 1900 |
| O=C(NCCN1CC=CC1)c1c(=O)c2ccc(N3CCOCC3)nc2n2c1sc1ccccc12 | 130 | 7940 |
| Cn1cncc1CNC(=O)c1c(=O)c2ccc(N3CCOCC3)nc2n2c1sc1ccccc12 | 174 | 2920 |
| O=C(c1c(=O)c2ccc(N3CCOCC3)nc2n2c1sc1ccccc12)N1CCN(c2ncccn2)CC1 | 461 | 15300 |
| O=C(c1c(=O)c2ccc(N3CCOCC3)nc2n2c1sc1ccccc12)N1CCN(c2ccccn2)CC1 | 210 | 1740 |
| O=C(NCCN1CC=CC1)c1cn2c3c(c(N4CCC(c5cnccn5)C4)c(F)cc3c1=O)Oc1cc3ccccc3cc1-2 (centres unmarked) | 398 | 8040 |
| O=C(NCCN1CC=CCC1)c1c(=O)c2ccc(N3CCOCC3)nc2n2c1sc1ccccc12 | 98 | 632 |
| O=C(NCCN1CC=CC1)c1c(=O)c2cc(F)c(N3CCOCC3)nc2n2c1sc1ccccc12 | 392 | 2000 |
| O=C(NCCNCCF)c1c(=O)c2ccc(N3CCOCC3)nc2n2c1sc1ccccc12 | 135 | 5020 |
| O=C(NCCNCC(F)(F)F)c1c(=O)c2ccc(N3CCOCC3)nc2n2c1sc1ccccc12 | 535 | 9450 |
| O=C(NCCNCCF)c1c(=O)c2cc(F)c(N3CCOCC3)nc2n2c1sc1ccccc12 | 484 | 2220 |

| SMILES | IC50 [1] [nM] | AUC(0-t) [2] [ng·h/mL] |
| --- | --- | --- |
| O=C(NCCn1ccnc1)c1c(=O)c2ccc(N3CCOCC3)nc2n2c1sc1ccccc12 | 473 | 4030 |
| Cn1ccnc1CNC(=O)c1c(=O)c2ccc(N3CCOCC3)nc2n2c1sc1ccccc12 | 145 | 5490 |
| O=C(NCCN1CCOCC1)c1c(=O)c2ccc(N3CCOCC3)nc2n2c1sc1ccccc12 | 454 | 2980 |
| Cn1ccnc1CNC(=O)c1c(=O)c2cc(F)c(N3CCOCC3)nc2n2c1sc1ccccc12 | 199 | 20300 |
| Cc1nccn1CCNC(=O)c1c(=O)c2ccc(N3CCOCC3)nc2n2c1sc1ccccc12 | 166 | 4380 |
| O=C(NNC1=NCCN1)c1c(=O)c2cc(F)c(N3CCOCC3)nc2n2c1sc1ccccc12 | 1 | 2430 |
| Cn1c2ccccc2n2c3nc(N4CCOCC4)c(F)cc3c(=O)c(C(=O)N3CCN4CCCC4C3)c12 (centres unmarked) | 843 | 3210 |
| CN1CCN(c2ccc3c(=O)c(C(=O)NCc4ccccn4)c4sc5ccccc5n4c3n2)CC1 | 147 | 51100 |
| O=C(NCCNC1CC1)c1c(=O)c2cc(F)c(N3CCOCC3)nc2n2c1sc1ccccc12 | 132 | 5150 |
| CN1CCCCC1CNC(=O)c1c(=O)c2ccc(N3CCOCC3)nc2n2c1sc1ccccc12 (centres unmarked) | 6 | 1050 |
| CN1CCCN(C(=O)c2c(=O)c3cc(F)c(N4CCOCC4)nc3n3c2sc2ccccc23)CC1 | 300 | 4230 |
| Cn1ccnc1CNC(=O)c1c(=O)c2cc(N3CCOCC3)nnc2n2c1sc1ccccc12 | 174 | 3780 |
| CN1CCCC(NC(=O)c2c(=O)c3cc(F)c(N4CCOCC4)nc3n3c2sc2ccccc23)C1 (centres unmarked) | 27 | 1030 |
| O=C(NCC1CCCN1)c1c(=O)c2cc(F)c(N3CCOCC3)nc2n2c1sc1ccccc12 (centres unmarked) | 9 | 1050 |
| CN1CCCCC1CNc1ccc2c(=O)c(C(=O)NCc3ccncc3)c3sc4ccccc4n3c2n1 (centres unmarked) | 8 | 790 |
| CN1CCCC1CNC(=O)c1c(=O)c2cc(F)c(N3CCOCC3)nc2n2c1sc1ccccc12 (centres unmarked) | 128 | 3960 |
| CN1CCN(c2nc3c(cc2F)c(=O)c(C(=O)NCc2cn(C)cn2)c2sc4ccccc4n23)CC1 | 303 | 45100 |
| O=C(NCCNC1CCC1)c1c(=O)c2ccc(N3CCOCC3)nc2n2c1sc1ccccc12 | 286 | 3180 |
| CN1CCN(c2ccc3c(=O)c(C(=O)NC4CC4)c4n(C)c5ccccc5n4c3n2)CC1 | 202 | 5200 |
| O=C(NCCNC1CC1)c1c(=O)c2ccc(N3CCOCC3)nc2n2c1sc1ccccc12 [drawing 604] | 65 | 5370 |
| Cc1cnc(CNC(=O)c2c(=O)c3ccc(N4CCN(C)CC4)nc3n3c2sc2ccccc23)cn1 [drawing 619] | 391 | 166000 |

Reference: patent US8853234B2, “Quinolone analogs and methods related thereto” (Senhwa Biosciences, Inc., priority 2007, dated 2014)
